{"source": "patent US11607403B2", "about": "“Methods and compositions for promoting adult neurogenesis” (Morningside Ventures Limited, priority 2015, dated 2023)", "key": {"mouse hippocampus [1]": {"test_system": "mouse hippocampus", "experiment": "Neural progenitor amplification (BrdU incorporation) after intracerebroventricular osmotic pump infusion", "format": "in vivo", "conditions": "1 mM intracerebroventricular, 0.5 μl per hour, 7 days, compared to allopurinol or vehicle alone", "description": "To assess the effects of febuxostat on neural progenitor amplification, febuxostat or allopurinol (1 mM) were intracerebroventricularly delivered via osmotic pump infusion (0.5 μl per hour) to mouse brains for 7 days. Control subjects received vehicle alone. BrdU was administered in four injections on day 6, and brain tissues were harvested on day 7. Neural progenitor amplification was measured by quantifying the number of BrdU-positive cells in the subgranular zone (SGZ) of hippocampal tissue sections."}, "mouse hippocampus [2]": {"test_system": "mouse hippocampus", "experiment": "Neuronal differentiation (DCX with BrdU) after intracerebroventricular osmotic pump infusion", "format": "in vivo", "conditions": "1 mM intracerebroventricular 7 days, tissue harvested day 14, compared to allopurinol or vehicle alone", "description": "To assess the effects of febuxostat on adult neurogenesis, febuxostat or allopurinol (1 mM) were delivered to mouse brains for 7 days as described above. BrdU was administered in eight injections over days 2-3. The osmotic pump was removed on day 7 and brain tissues were harvested on day 14. The hippocampal slices were subjected to immunohistochemical analysis for the detection of BrdU and doublecortin (DCx) (newly formed neuron marker) stained cells in the subgranular zone of the hippocampus."}, "[3]": {"test_system": "hippocampus of mice subjected to chronic restraint stress", "experiment": "Neural progenitor amplification (BrdU-positive cells) in mice under chronic restraint stress", "format": "in vivo, mouse", "conditions": "for neuron progenitor amplification (BrdU incorporation): vs allopurinol, vehicle and unrestrained controls, n=3 mice", "description": "(§1) Murine subjects underwent CRS on day zero, with febuxostat (1 mg kg^−1 d^−1) allopurinol (20 mg kg^−1 d^−1), Rhy37 (10 mg kg^−1 d^−1), or vehicle alone, administered daily intragastrically beginning on day 15. BrdU was administered on day 36, and brain tissues harvested on day 37 or 50. Control subjects remained free throughout the trial period. Neural progenitor amplification was measured by quantifying the number of BrdU-positive cells in hippocampal tissue sections. […] Results were compared using a one-way ANOVA test."}, "[4]": {"test_system": "hippocampus of mice subjected to chronic restraint stress", "experiment": "Neuronal differentiation (DCX+/BrdU-positive cells) in mice under chronic restraint stress", "format": "in vivo, mouse", "description": "as §1"}, "[5]": {"conditions": "CRS mice, daily intragastric from day 15, harvest day 37 or 50, compared to allopurinol or vehicle alone"}}, "note": "“Also recorded” adds a separate entry of the source.", "data": [{"smiles": "Cc1nc(-c2ccc(OCC(C)C)c(C#N)c2)sc1C(=O)O", "note": "[febuxostat, 2-(3-cyano-4-isobutoxyphenyl)-4-methyl-1,3-thiazole-5-carboxylic acid]", "values": [{"measurement": "neural progenitor amplification (BrdU-positive cells in the subgranular zone)", "setting": "mouse hippocampus [1]", "value": "promotes neural progenitor amplification; also recorded: increased levels"}, {"measurement": "neural differentiation (BrdU and doublecortin stained cells in the subgranular zone)", "setting": "mouse hippocampus [2]", "value": "neuronal differentiation; also recorded: increased levels"}, {"measurement": "neuron progenitor amplification (BrdU incorporation)", "setting": "[3]; 37 days of chronic restraint stress", "value": "promotes neuron progenitor amplification"}, {"measurement": "neuron progenitor amplification (BrdU incorporation)", "setting": "[3]; 50 days of chronic restraint stress", "value": "promotes neuron progenitor amplification"}, {"measurement": "neural progenitor amplification (BrdU-positive cells)", "setting": "[3]; [5]", "value": "increased levels"}, {"measurement": "neuronal differentiation (DCX expression with BrdU incorporation)", "setting": "[4]; 50 days of chronic restraint stress, vs allopurinol, vehicle and unrestrained controls", "value": "promotes neuronal differentiation"}, {"measurement": "neural differentiation (DCX+/BrdU-positive cells)", "setting": "[4]; [5]", "value": "increased levels"}]}]}
